Read-outs that look alike come from different tables or passages of the source. Numbered stars: 1 amine (or outer) side, 2 acyl side, 3 side chain; on linkers, the order of the positions; unused ones are H or OH. Square brackets hold non-standard residues; d marks the D form. Side chains are listed from the residue outwards. Peptide text beside a SMILES is read from it. * marks the point of attachment. Phe(4-CH2NH2) = NCc1ccc(C[C@H](N)C(=O)O)cc1; C18 diacid = O=C(O)CCCCCCCCCCCCCCCCC(=O)*; C16 diacid = O=C(O)CCCCCCCCCCCCCCC(=O)*; γGlu = O=C(O)[C@H](CCC(=O)[*:2])N[*:1]; Met(O2) = CS(=O)(=O)CC[C@H](N)C(=O)O; αMeD = C[C@](N)(CC(=O)O)C(=O)O; αMeS = C[C@](N)(CO)C(=O)O; AEEA = NCCOCCOCC(=O)O; Aib = CC(C)(N)C(=O)O
What was measured:
human GCGR = biological target: T1, human GCGR (Homo sapiens, UniProt P47871); assay: cAMP activity assay at the Glucagon receptor (GCGR); type: cell-based; conditions: for hGCGR/hGLP1R (hTone): ratio of GCGR EC50 to GLP1R EC50
T1 construct: expressed in transfected cells; growth medium holds Blasticidin and Hygromycin
T1 sequence (P47871 26-477): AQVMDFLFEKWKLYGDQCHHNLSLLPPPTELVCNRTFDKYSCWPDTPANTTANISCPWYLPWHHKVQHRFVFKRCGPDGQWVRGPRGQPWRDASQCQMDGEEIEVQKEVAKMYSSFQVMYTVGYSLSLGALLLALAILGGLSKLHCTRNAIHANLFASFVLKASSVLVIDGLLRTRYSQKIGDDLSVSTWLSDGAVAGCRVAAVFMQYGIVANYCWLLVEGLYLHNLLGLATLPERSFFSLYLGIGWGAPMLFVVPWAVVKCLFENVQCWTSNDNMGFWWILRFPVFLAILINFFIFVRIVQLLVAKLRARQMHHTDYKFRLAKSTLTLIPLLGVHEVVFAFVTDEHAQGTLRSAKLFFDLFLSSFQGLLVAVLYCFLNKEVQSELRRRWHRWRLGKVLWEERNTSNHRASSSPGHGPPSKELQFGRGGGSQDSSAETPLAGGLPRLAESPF
Procedure, shortened: (§1)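 Peptides serially diluted from DMSO (10 points) and added to frozen-stock cells bearing human GLP1R (10,000 cells/well) or GCGR (30,000 cells/well), 1 h at RT, dark. EC50 by four-parameter logistic fit of HitHunter cAMPXS luminescence, read following overnight RT incubation.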

human GLP1R = biological target: T2, human GLP1R (Homo sapiens, UniProt P43220); assay: cAMP activity assay at the GLP-1 receptor (GLP1R); type: cell-based
T2 construct: expressed in transfected cells; growth medium holds Blasticidin and Hygromycin
T2 sequence (P43220 24-463): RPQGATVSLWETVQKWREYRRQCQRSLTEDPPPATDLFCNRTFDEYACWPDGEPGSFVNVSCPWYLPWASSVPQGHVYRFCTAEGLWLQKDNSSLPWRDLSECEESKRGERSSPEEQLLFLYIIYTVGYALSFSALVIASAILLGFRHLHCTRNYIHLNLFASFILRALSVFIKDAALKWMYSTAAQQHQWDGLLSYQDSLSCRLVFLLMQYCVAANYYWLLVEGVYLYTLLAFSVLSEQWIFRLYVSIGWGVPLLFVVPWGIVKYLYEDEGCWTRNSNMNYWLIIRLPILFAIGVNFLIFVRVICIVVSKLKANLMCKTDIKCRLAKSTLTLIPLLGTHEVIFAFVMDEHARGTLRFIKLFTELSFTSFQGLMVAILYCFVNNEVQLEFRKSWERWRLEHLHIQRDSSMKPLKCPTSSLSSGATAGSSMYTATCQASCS
Procedure, shortened: as §1

[1] = summary statement: EC50 at each of the glucagon and GLP-1 receptors, read-out: EC50 at the glucagon receptor
[2] = summary statement: EC50 at each of the glucagon and GLP-1 receptors, read-out: EC50 at the GLP-1 receptor
[3] = cells expressing human GCGR, cAMP production, buffer with or without 20% human serum (not stated which), read-out: GCGR EC50 human

| SMILES | hGCGR/hGLP1R (hTone) (human GCGR) | EC50 (human GCGR; [1]) | EC50 (human GLP1R; cells expressing human GLP1R, cAMP production, buffer with or without 20% human serum (not stated which), read-out: GLP1R EC50 human) | EC50 (human GLP1R; [2]) | EC50 (human GCGR; [3]) |
| --- | --- | --- | --- | --- | --- |
| CC(C)C[C@H](NC(=O)[C@H](Cc1ccc(O)cc1)NC(=O)[C@H](CCCCN)NC(=O)[C@H](CO)NC(=O)[C@H](Cc1ccc(O)cc1)NC(=O)[C@H](CC(=O)O)NC(=O)[C@H](CO)NC(=O)[C@@H](NC(=O)[C@H](Cc1ccccc1)NC(=O)[C@@H](NC(=O)CNC(=O)[C@H](CCC(N)=O)NC(=O)[C@](C)(CO)NC(=O)[C@@H](N)Cc1c[nH]cn1)[C@@H](C)O)[C@@H](C)O)C(=O)N[C@@H](CC(=O)O)C(=O)NC(C)(C)C(=O)N[C@@H](CCCNC(=N)N)C(=O)N[C@@H](C)C(=O)N[C@@H](C)C(=O)N[C@@H](CCC(N)=O)C(=O)N[C@@H](CCCCNC(=O)COCCOCCNC(=O)COCCOCCNC(=O)CC[C@H](NC(=O)CCCCCCCCCCCCCCC(=O)O)C(=O)O)C(=O)N[C@@H](Cc1ccccc1)C(=O)N[C@H](C(=O)N[C@@H](CCC(N)=O)C(=O)N[C@@H](Cc1c[nH]c2ccccc12)C(=O)N[C@@H](CC(C)C)C(=O)N[C@@H](CCS(C)(=O)=O)C(=O)N[C@@](C)(CC(=O)O)C(=O)N[C@H](C(N)=O)[C@@H](C)O)C(C)C [TP619] (H-H[αMeS]QGTFTSDYSKYLD[Aib]RAAQK([AEEA-AEEA-γGlu-C16 diacid])FVQWL[Met(O2)][αMeD]T-NH2) | 0.1 | < 5 nM | 0.38 nM | < 5 nM | – |
| CC(C)C[C@H](NC(=O)[C@H](Cc1ccc(O)cc1)NC(=O)[C@H](CCCCN)NC(=O)[C@H](CO)NC(=O)[C@H](Cc1ccc(O)cc1)NC(=O)[C@H](CC(=O)O)NC(=O)[C@H](CO)NC(=O)[C@@H](NC(=O)[C@H](Cc1ccccc1)NC(=O)[C@@H](NC(=O)CNC(=O)[C@H](CCC(N)=O)NC(=O)C(C)(C)NC(=O)[C@@H](N)Cc1c[nH]cn1)[C@@H](C)O)[C@@H](C)O)C(=O)N[C@@H](CC(=O)O)C(=O)N[C@@H](C)C(=O)N[C@@H](CCCNC(=N)N)C(=O)N[C@@H](C)C(=O)N[C@@H](C)C(=O)N[C@@H](CCC(N)=O)C(=O)N[C@@H](CCCCNC(=O)COCCOCCNC(=O)COCCOCCNC(=O)CC[C@H](NC(=O)CCCCCCCCCCCCCCC(=O)O)C(=O)O)C(=O)N[C@@H](Cc1ccccc1)C(=O)N[C@H](C(=O)N[C@@H](CCC(N)=O)C(=O)N[C@@H](Cc1c[nH]c2ccccc12)C(=O)N[C@@H](CC(C)C)C(=O)N[C@@H](CCS(C)(=O)=O)C(=O)N[C@@H](CCC(=O)N[C@H](C(N)=O)[C@@H](C)O)C(=O)O)C(C)C [TP827] (H-H[Aib]QGTFTSDYSKYLDARAAQK([AEEA-AEEA-γGlu-C16 diacid])FVQWL[Met(O2)][γGlu]T-NH2) | 1.6 | < 5 nM | – | < 5 nM | – |
| CC(C)C[C@H](NC(=O)[C@H](Cc1ccc(O)cc1)NC(=O)[C@H](CCCCN)NC(=O)[C@H](CO)NC(=O)[C@H](Cc1ccc(O)cc1)NC(=O)[C@H](CC(=O)O)NC(=O)[C@H](CO)NC(=O)[C@@H](NC(=O)[C@H](Cc1ccccc1)NC(=O)[C@@H](NC(=O)CNC(=O)[C@H](CCC(N)=O)NC(=O)C(C)(C)NC(=O)[C@@H](N)Cc1c[nH]cn1)[C@@H](C)O)[C@@H](C)O)C(=O)N[C@@H](CC(=O)O)C(=O)N[C@@H](C)C(=O)N[C@@H](CCCNC(=N)N)C(=O)N[C@@H](C)C(=O)N[C@@H](C)C(=O)N[C@@H](CCCCNC(=O)COCCOCCNC(=O)CC[C@H](NC(=O)CCCCCCCCCCCCCCCCC(=O)O)C(=O)O)C(=O)N[C@@H](CC(=O)O)C(=O)N[C@@H](Cc1ccccc1)C(=O)N[C@H](C(=O)N[C@@H](CCC(N)=O)C(=O)N[C@@H](Cc1c[nH]c2ccccc12)C(=O)N[C@@H](CC(C)C)C(=O)N[C@@H](CCS(C)(=O)=O)C(=O)N[C@@H](CC(=O)O)C(=O)N[C@H](C(N)=O)[C@@H](C)O)C(C)C [TP626] (H-H[Aib]QGTFTSDYSKYLDARAAK([AEEA-γGlu-C18 diacid])DFVQWL[Met(O2)]DT-NH2; N-terminus assumed) | 0.6 | < 5 nM | – | < 5 nM | – |
| CC(C)C[C@H](NC(=O)[C@H](Cc1c[nH]c2ccccc12)NC(=O)[C@H](CCCCNC(=O)COCCOCCNC(=O)COCCOCCNC(=O)CC[C@H](NC(=O)CCCCCCCCCCCCCCC(=O)O)C(=O)O)NC(=O)[C@@H](NC(=O)[C@H](Cc1ccccc1)NC(=O)[C@H](CC(=O)O)NC(=O)[C@H](CCC(N)=O)NC(=O)[C@H](C)NC(=O)[C@H](C)NC(=O)[C@H](CCCNC(=N)N)NC(=O)C(C)(C)NC(=O)[C@H](CC(=O)O)NC(=O)[C@H](CC(C)C)NC(=O)[C@H](Cc1ccc(O)cc1)NC(=O)[C@H](CCCCN)NC(=O)[C@H](CO)NC(=O)[C@H](Cc1ccc(O)cc1)NC(=O)[C@H](CC(=O)O)NC(=O)[C@H](CO)NC(=O)[C@@H](NC(=O)[C@H](Cc1ccccc1)NC(=O)[C@@H](NC(=O)CNC(=O)[C@H](CCC(N)=O)NC(=O)C(C)(C)NC(=O)[C@@H](N)Cc1c[nH]cn1)[C@@H](C)O)[C@@H](C)O)C(C)C)C(=O)N[C@@H](CCS(C)(=O)=O)C(=O)N[C@@H](CCC(=O)N[C@H](C(N)=O)[C@@H](C)O)C(=O)O [TP828] (H-H[Aib]QGTFTSDYSKYLD[Aib]RAAQDFVK([AEEA-AEEA-γGlu-C16 diacid])WL[Met(O2)][γGlu]T-NH2) | 0.4 | < 5 nM | – | < 5 nM | – |
| CC(C)C[C@H](NC(=O)[C@H](Cc1ccc(O)cc1)NC(=O)[C@H](CCCCN)NC(=O)[C@H](CO)NC(=O)[C@H](Cc1ccc(CNC(=O)COCCOCCNC(=O)CC[C@H](NC(=O)CCCCCCCCCCCCCCCCC(=O)O)C(=O)O)cc1)NC(=O)[C@H](CC(=O)O)NC(=O)[C@H](CO)NC(=O)[C@@H](NC(=O)[C@H](Cc1ccccc1)NC(=O)[C@@H](NC(=O)CNC(=O)[C@H](CCC(N)=O)NC(=O)C(C)(C)NC(=O)[C@@H](N)Cc1c[nH]cn1)[C@@H](C)O)[C@@H](C)O)C(=O)N[C@@H](CC(=O)O)C(=O)N[C@@H](C)C(=O)N[C@@H](CCCNC(=N)N)C(=O)N[C@@H](C)C(=O)N[C@@H](C)C(=O)N[C@@H](CCC(N)=O)C(=O)N[C@@H](CC(=O)O)C(=O)N[C@@H](Cc1ccccc1)C(=O)N[C@H](C(=O)N[C@@H](CCC(N)=O)C(=O)N[C@@H](Cc1c[nH]c2ccccc12)C(=O)N[C@@H](CC(C)C)C(=O)N[C@@H](CCS(C)(=O)=O)C(=O)N[C@@H](CC(=O)O)C(=O)N[C@H](C(N)=O)[C@@H](C)O)C(C)C [TP623] (H-H[Aib]QGTFTSD[Phe(4-CH2NH2)]([AEEA-γGlu-C18 diacid])SKYLDARAAQDFVQWL[Met(O2)]DT-NH2) | 0.5 | < 5 nM | – | < 5 nM | – |
| CC(C)C[C@H](NC(=O)[C@H](Cc1c[nH]c2ccccc12)NC(=O)[C@H](CCC(N)=O)NC(=O)[C@@H](NC(=O)[C@H](Cc1ccccc1)NC(=O)[C@H](CC(=O)O)NC(=O)[C@H](CCCCNC(=O)COCCOCCNC(=O)COCCOCCNC(=O)CC[C@H](NC(=O)CCCCCCCCCCCCCCCCC(=O)O)C(=O)O)NC(=O)[C@H](C)NC(=O)[C@H](C)NC(=O)[C@H](CCCNC(=N)N)NC(=O)C(C)(C)NC(=O)[C@H](CC(=O)O)NC(=O)[C@H](CC(C)C)NC(=O)[C@H](Cc1ccc(O)cc1)NC(=O)[C@H](CCCCN)NC(=O)[C@H](CO)NC(=O)[C@H](Cc1ccc(O)cc1)NC(=O)[C@H](CC(=O)O)NC(=O)[C@H](CO)NC(=O)[C@@H](NC(=O)[C@H](Cc1ccccc1)NC(=O)[C@@H](NC(=O)CNC(=O)[C@H](CCC(N)=O)NC(=O)C(C)(C)NC(=O)[C@@H](N)Cc1c[nH]cn1)[C@@H](C)O)[C@@H](C)O)C(C)C)C(=O)N[C@@H](CCS(C)(=O)=O)C(=O)N[C@@H](CCC(=O)O)C(=O)N[C@H](C(N)=O)[C@@H](C)O [TP673] (H-H[Aib]QGTFTSDYSKYLD[Aib]RAAK([AEEA-AEEA-γGlu-C18 diacid])DFVQWL[Met(O2)]ET-NH2; N-terminus assumed) | 0.3 | < 5 nM | – | < 5 nM | 0.22 nM |
| CC(C)C[C@H](NC(=O)[C@H](Cc1ccc(O)cc1)NC(=O)[C@H](CCCCN)NC(=O)[C@H](CO)NC(=O)[C@H](Cc1ccc(O)cc1)NC(=O)[C@H](CC(=O)O)NC(=O)[C@H](CO)NC(=O)[C@@H](NC(=O)[C@H](Cc1ccccc1)NC(=O)[C@@H](NC(=O)CNC(=O)[C@H](CCC(N)=O)NC(=O)C(C)(C)NC(=O)[C@@H](N)Cc1c[nH]cn1)[C@@H](C)O)[C@@H](C)O)C(=O)N[C@@H](CC(=O)O)C(=O)N[C@@H](C)C(=O)N[C@@H](CCCNC(=N)N)C(=O)N[C@@H](C)C(=O)N[C@@H](C)C(=O)N[C@@H](CCC(N)=O)C(=O)N[C@@H](CCC(=O)O)C(=O)N[C@@H](Cc1ccccc1)C(=O)N[C@H](C(=O)N[C@@H](CCCCNC(=O)COCCOCCNC(=O)COCCOCCNC(=O)CC[C@H](NC(=O)CCCCCCCCCCCCCCCCC(=O)O)C(=O)O)C(=O)N[C@@H](Cc1c[nH]c2ccccc12)C(=O)N[C@@H](CC(C)C)C(=O)N[C@@H](CCS(C)(=O)=O)C(=O)N[C@@H](CC(=O)O)C(=O)N[C@H](C(N)=O)[C@@H](C)O)C(C)C [TP702] (H-H[Aib]QGTFTSDYSKYLDARAAQEFVK([AEEA-AEEA-γGlu-C18 diacid])WL[Met(O2)]DT-NH2; N-terminus assumed) | 1.4 | < 5 nM | – | < 5 nM | 0.35 nM |

— patent US11566057B2, “Long-acting co-agonists of the glucagon and GLP-1 receptors” (Merck Sharp & Dohme Corp., priority 2017, dated 2023)
